Experimental data published in patent US8623859B2, “Bradykinin B1 antagonists” (Evotec AG, priority 2008, dated 2014).
Structures can show the parent of a compound that is named as a salt.

Biological target: T1, human B1 (Homo sapiens, UniProt P46663)
T1 construct: host or cells: CHO-K1
T1 sequence (P46663 1-353): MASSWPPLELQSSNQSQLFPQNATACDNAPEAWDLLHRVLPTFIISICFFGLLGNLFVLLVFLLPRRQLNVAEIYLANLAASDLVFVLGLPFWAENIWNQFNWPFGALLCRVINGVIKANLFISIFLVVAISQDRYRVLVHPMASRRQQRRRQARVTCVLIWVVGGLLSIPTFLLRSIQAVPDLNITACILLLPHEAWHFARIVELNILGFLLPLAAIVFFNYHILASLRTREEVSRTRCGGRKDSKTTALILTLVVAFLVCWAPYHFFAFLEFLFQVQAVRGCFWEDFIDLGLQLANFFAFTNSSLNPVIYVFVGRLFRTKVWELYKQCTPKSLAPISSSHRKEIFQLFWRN
Experiment: Calcium flux assay for Bradykinin B1 antagonist, CHO-K1 cell line expressing human B1
Type: cell-based
Details: CHO-K1 cells expressing human B1, agonist Lys-(Des-Arg)-Bradykinin, read-out: Potency (IC50 value against human B1)
How it was run: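 Inhibition of B1 agonist-evoked intracellular Ca2+ rise was followed by continuous fluorescence at 538 nm, with integrated, background-normalized signals plotted versus log compound concentration. Test compounds (eight 10-fold dilutions, triplicate, 1% DMSO final) were added 30 min at 25° C beforehand to Fluo-4AM-loaded human B1 CHO-K1 cells in pH 7.4 assay buffer.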

Row | Structure (SMILES) | IC50 [nM]
1 | COc1cc(C)c(S(=O)(=O)N(C)Cc2nnc(C(=O)N(C)Cc3ccc4c(c3)CN(C)C4)o2)c(C)c1 [Ex 288, 5-({[(4-Methoxy-2,6-dimethylphenyl)sulfonyl](methyl)amino}methyl)-N-methyl-N-[(2-methyl-2,3-dihydro-1H-isoindol-5-yl)methyl]-1,3,4-oxadiazole-2-carboxamide] | 100 to 1000
2 | COc1cc(C)c(S(=O)(=O)N(C)Cc2nnc(C(=O)N(C)Cc3cccc(CN4CCCC4)c3)o2)c(C)c1 [Ex 289, 5-({[(4-Methoxy-2,6-dimethylphenyl)sulfonyl](methyl)amino}methyl)-N-methyl-N-[3-(pyrrolidin-1-ylmethyl)benzyl]-1,3,4-oxadiazole-2-carboxamide] | 10 to 100
3 | [2H]C([2H])([2H])N(Cc1nnc(C(=O)N2CCN(CC3CCN(C)CC3)CC2)o1)S(=O)(=O)c1c(C)cc(OC)cc1C [Ex 291, 4-Methoxy-2,6-dimethyl-N-(^2H3)methyl-N-{[5-({4-[(1-methylpiperidin-4-yl)methyl]piperazin-1-yl}carbonyl)-1,3,4-oxadiazol-2-yl]methyl}benzenesulfonamide trifluoroacetate] | 100 to 1000
4 | COc1cc(C)c(S(=O)(=O)N(C)Cc2nnc(C(=O)N3CCN(Cc4ccnc(C)c4)CC3)o2)c(C)c1 [Ex 294, 4-Methoxy-N,2,6-trimethyl-N-{[5-({4-[(2-methylpyridin-4-yl)methyl]piperazin-1-yl}carbonyl)-1,3,4-oxadiazol-2-yl]methyl}benzenesulfonamide] | 10 to 100
5 | COc1cc(C)c(S(=O)(=O)N(C)Cc2noc(C(=O)N3CCN(C4CCN(C)CC4)CC3)n2)c(C)c1 [Ex 302, 4-Methoxy-N,2,6-trimethyl-N-[(5-{[4-(1-methylpiperidin-4-yl)piperazin-1-yl]carbonyl}-1,2,4-oxadiazol-3-yl)methyl]benzenesulfonamide trifluoroacetate] | 100 to 1000
6 | COc1cc(C)c(S(=O)(=O)N(C)Cc2noc(C(=O)N3CCN(CC4CCCN(C)C4)CC3)n2)c(C)c1 (stereo not shown) [Ex 303, 4-Methoxy-N,2,6-trimethyl-N-{[5-({4-[(1-methylpiperidin-3-yl)methyl]piperazin-1-yl}carbonyl)-1,2,4-oxadiazol-3-yl]methyl}benzenesulfonamide trifluoroacetamide] | 100 to 1000
7 | COc1cc(C)c(S(=O)(=O)N(C)Cc2noc(C(=O)N3CCN(CCCN4CCCC4)CC3)n2)c(C)c1 [Ex 304, 4-Methoxy-N,2,6-trimethyl-N-[(5-{[4-(3-pyrrolidin-1-ylpropyl)piperazin-1-yl]carbonyl}-1,2,4-oxadiazol-3-yl)methyl]benzenesulfonamide trifluoroacetamide] | 100 to 1000
8 | COc1cc(C)c(S(=O)(=O)N(Cc2noc(C(=O)N(C)Cc3nc(CN4CCCC4)cs3)n2)C2CC2)c(C)c1 [Ex 307, 3-({Cyclopropyl[(4-methoxy-2,6-dimethylphenyl)sulfonyl]amino}methyl)-N-methyl-N-{[4-(pyrrolidin-1-ylmethyl)-1,3-thiazol-2-yl]methyl}-1,2,4-oxadiazole-5-carboxamide trifluoroacetate] | 10 to 100
9 | COc1cc(C)c(S(=O)(=O)N(C)Cc2noc(C(=O)N3CCN(CCN4CCCC4)CC3)n2)c(C)c1 [Ex 308, 4-Methoxy-N,2,6-trimethyl-N-[(5-{[4-(2-pyrrolidin-1-ylethyl)piperazin-1-yl]carbonyl}-1,2,4-oxadiazol-3-yl)methyl]benzenesulfonamide] | 100 to 1000
10 | COc1cc(C)c(S(=O)(=O)N(C)Cc2noc(C(=O)N3CCN(CCCN(C)C)CC3)n2)c(C)c1 [Ex 309, N-{[5-({4-[3-(Dimethylamino)propyl]piperazin-1-yl}carbonyl)-1,2,4-oxadiazol-3-yl]methyl}-4-methoxy-N,2,6-trimethylbenzenesulfonamide] | 10 to 100
11 | COc1cc(C)c(S(=O)(=O)N(Cc2noc(C(=O)N3CCN(CC4CCN(C)CC4)CC3)n2)C2CC2)c(C)c1 [Ex 314, N-Cyclopropyl-4-methoxy-2,6-dimethyl-N-{[5-({4-[(1-methylpiperidin-4-yl)methyl]piperazin-1-yl}carbonyl)-1,2,4-oxadiazol-3-yl]methyl}benzenesulfonamide] | < 10
12 | COc1cc(C)c(S(=O)(=O)N(Cc2noc(C(=O)N3CCN(CC4CCCN(C)C4)CC3)n2)C2CC2)c(C)c1 (stereo not shown) [Ex 315, N-Cyclopropyl-4-methoxy-2,6-dimethyl-N-{[5-({4-[(1-methylpiperidin-3-yl)methyl]piperazin-1-yl}carbonyl)-1,2,4-oxadiazol-3-yl]methyl}benzenesulfonamide] | 10 to 100
13 | COc1cc(C)c(S(=O)(=O)N(Cc2noc(C(=O)N3CCN(CCCN(C)C)CC3)n2)C2CC2)c(C)c1 [Ex 316, N-Cyclopropyl-N-{[5-([4-[3-(dimethylamino)propyl]piperazin-1-yl]carbonyl)-1,2,4-oxadiazol-3-yl]methyl}-4-methoxy-2,6-dimethylbenzenesulfonamide] | 10 to 100

Now from value to compound:

Row | IC50 [nM] | Structure (SMILES)
14 | < 10 | COc1cc(C)c(S(=O)(=O)N(C)Cc2nnc(C(=O)N3CCN(Cc4c[nH]c(C)n4)CC3)o2)c(C)c1 [Ex 292, 4-Methoxy-N,2,6-trimethyl-N-{[5-({4-[(2-methyl-1H-imidazol-4-yl)methyl]piperazin-1-yl}carbonyl)-1,3,4-oxadiazol-2-yl]methyl}benzenesulfonamide]
15 | < 10 | COc1cc(C)c(S(=O)(=O)N(C)Cc2nnc(C(=O)N3CCN(Cc4cccnc4N)CC3)o2)c(C)c1 [Ex 295, N-{[5-({4-[(2-Aminopyridin-3-yl)methyl]piperazin-1-yl}carbonyl)-1,3,4-oxadiazol-2-yl]methyl}-4-methoxy-N,2,6-trimethylbenzenesulfonamide]
16 | < 10 | COc1cc(C)c(S(=O)(=O)N(C)Cc2nnc(C(=O)N3CCN(Cc4cnc5ccccc5c4)CC3)o2)c(C)c1 [Ex 296, 4-Methoxy-N,2,6-trimethyl-N-[(5-{[4-(quinolin-3-ylmethyl)piperazin-1-yl]carbonyl}-1,3,4-oxadiazol-2-yl)methyl]benzenesulfonamide]
17 | < 10 | COc1cc(C)c(S(=O)(=O)N(C)Cc2nnc(C(=O)N3CCN(Cc4ccc(Cl)nc4)CC3)o2)c(C)c1 [Ex 297, N-{[5-({4-[(6-Chloropyridin-3-yl)methyl]piperazin-1-yl}carbonyl)-1,3,4-oxadiazol-2-yl]methyl}-4-methoxy-N,2,6-trimethylbenzenesulfonamide]
18 | < 10 | COc1cc(C)c(S(=O)(=O)N(C)Cc2noc(C(=O)N(C)Cc3ccc(CN4CCCC4)cc3)n2)c(C)c1 [Ex 300, 3-({[(4-Methoxy-2,6-dimethylphenyl)sulfonyl](methyl)amino}methyl)-N-methyl-N-[4-(pyrrolidin-1-ylmethyl)benzyl]-1,2,4-oxadiazole-5-carboxamide trifluoroacetamide]
19 | < 10 | COc1cc(C)c(S(=O)(=O)N(C)Cc2noc(C(=O)N(C)CCc3ccc(C4=NCCN4)cc3)n2)c(C)c1 [Ex 301, N-{2-[4-(4,5-Dihydro-1H-imidazol-2-yl)phenyl]ethyl}-3-({[(4-methoxy-2,6-dimethylphenyl)sulfonyl](methyl)amino}methyl)-N-methyl-1,2,4-oxadiazole-5-carboxamide trifluoroacetamide]
20 | < 10 | COc1cc(C)c(S(=O)(=O)N(C)Cc2noc(C(=O)N3CCN(CC4CCN(C)CC4)CC3)n2)c(C)c1 [Ex 305, 4-Methoxy-N,2,6-trimethyl-N-{[5-({4-[(1-methylpiperidin-4-yl)methyl]piperazin-1-yl}carbonyl)-1,2,4-oxadiazol-3-yl]methyl}benzenesulfonamide trifluoroacetate]
21 | < 10 | COc1cc(C)c(S(=O)(=O)N(Cc2noc(C(=O)N(C)Cc3ccc(CN4CCCC4)cc3)n2)C2CC2)c(C)c1 [Ex 306, 3-({Cyclopropyl[(4-methoxy-2,6-dimethylphenyl)sulfonyl]amino}methyl)-N-methyl-N-[4-(pyrrolidin-1-ylmethyl)benzyl]-1,2,4-oxadiazole-5-carboxamide trifluoroacetate]
22 | < 10 | COc1cc(C)c(S(=O)(=O)N(C)Cc2noc(C(=O)N3CCC(CCN4CCCC4)CC3)n2)c(C)c1 [Ex 310, 4-Methoxy-N,2,6-trimethyl-N-[(5-{[4-(2-pyrrolidin-1-ylethyl)piperidin-1-yl]carbonyl}-1,2,4-oxadiazol-3-yl)methyl]benzenesulfonamide]
23 | < 10 | COc1cc(C)c(S(=O)(=O)N(Cc2noc(C(=O)N3CCN(C4CCN(C)CC4)CC3)n2)C2CC2)c(C)c1 [Ex 311, N-Cyclopropyl-4-methoxy-2,6-dimethyl-N-[(5-{[4-(1-methylpiperidin-4-yl)piperazin-1-yl]carbonyl}-1,2,4-oxadiazol-3-yl)methyl]benzenesulfonamide]
24 | < 10 | COc1cc(C)c(S(=O)(=O)N(Cc2noc(C(=O)N3CCC(CCN4CCCC4)CC3)n2)C2CC2)c(C)c1 [Ex 312, N-Cyclopropyl-4-methoxy-2,6-dimethyl-N-[(5-{[4-(2-pyrrolidin-1-ylethyl)piperidin-1-yl]carbonyl}-1,2,4-oxadiazol-3-yl)methyl]benzenesulfonamide]
25 | < 10 | COc1cc(C)c(S(=O)(=O)N(Cc2noc(C(=O)N(C)Cc3nnc(CN4CCCC4)s3)n2)C2CC2)c(C)c1 [Ex 313, 3-({Cyclopropyl[(4-methoxy-2,6-dimethylphenyl)sulfonyl]amino}methyl)-N-methyl-N-{[5-(pyrrolidin-1-ylmethyl)-1,3,4-thiadiazol-2-yl]methyl}-1,2,4-oxadiazole-5-carboxamide]
